Entries after “also recorded” stand apart in the source; their conditions may differ.
Key:
[1] = test system: HBV GT C; assay: Transient-transfection antiviral study in HepG2 cells, GT C; format: cell-based; settings: Hepatitis B virus, HepG2, 72 h, read-out: EC50 (mean), HBV GT C
[2] = test system: HBV GT H; assay: Transient-transfection antiviral study in HepG2 cells, GT H; format: cell-based; settings: Hepatitis B virus, HepG2, 72 h, read-out: EC50 (mean), HBV GT H
[3] = test system: HBV isolates representing GT A to H; assay: Transient-transfection antiviral study, panel of HBV isolates GT A to H (summary statements); format: cell-based, hepatitis B virus; settings: EC50 values within this factor of each other
[4] = test system: HBV core protein variant T109S; assay: Transient-transfection antiviral study in HepG2 cells, core variant T109S; format: cell-based, hepatitis B virus
[5] = test system: plasma proteins; assay: Plasma protein binding by equilibrium dialysis, rat; format: in vitro ADME; settings: 2 µM
Source text: (§1) The binding of NVR 3-778 to the plasma proteins of mouse, rat, dog, monkey, and human was investigated by equilibrium dialysis.

[6] = test system: plasma proteins; assay: Plasma protein binding by equilibrium dialysis, human; format: in vitro ADME; settings: 2 µM
Source text: as §1

[7] = test system: HBV; assay: Effect of human serum on antiviral activity in HepG2.2.15 cells; format: cell-based, hepatitis B virus (GT D); settings: for EC50 / EC90: Hepatitis B virus, HepG2.2.15, 144 h, HepG2.2.15 cells, 6 days
Protocol: To determine the effect of human protein binding on NVR 3-778 antiviral activity, HepG2.2.15 cells were incubated with increasing concentrations of NVR 3-778 in the presence of 0% to 40% human serum.
In combination studies, cells were treated with compounds either alone or in combination after combining the compounds in a checkerboard format. In studies examining the effect of human serum, serially diluted NVR 3-778 was added into cell culture medium containing 0% to 40% human serum (BioreclamationIVT). Cells were incubated with the compounds for 3 days, after which the medium was removed, fresh medium containing the compounds was added to the cells, and the cells were incubated for another 3 days prior to harvesting of the supernatants or cells for antiviral assays. To quantify intracellular encapsidated rcDNA or encapsidated pgRNA, cells were first solubilized using lysis buffer containing 1% NP-40 and 10 mM CaCl2. The cytoplasmic fraction was then treated with S7 nuclease (6 units) to remove nonencapsidated nucleic acids, after which the S7 nuclease was inactivated by the addition of EDTA (0.5 M). […] The levels of HBV DNA were determined by a bDNA assay as described above (Affymetrix). Supernatants or cell lysates containing HBV RNA were treated with proteinase K (2.5 µg) at 50°C for 40 min, transferred to a capture plate containing HBV RNA probe sets, and hybridized overnight at 55°C. Captured HBV RNA was measured by the addition of a chemiluminescent substrate using a QuantiGene assay (Affymetrix). […] At day 6, the CellTiter-Glo reagent was added to the cells and viability was determined according to the manufacturer’s protocol (Promega). Luminescence signals were measured at 0.2 s using a Victor X4 multimode plate reader (PerkinElmer). […]
Figure S3. Effect of human serum on NVR 3-778 antiviral activities. HepG2.2.15 cells were incubated with increasing concentrations of NVR 3-778 for 6 days in the presence of 0% (●), 10% […]
HBV DNA concentrations were determined from supernatant and compared to untreated cells containing the corresponding concentration of human serum. Data points represent mean values from at least three independent antiviral studies, and standard deviations are shown as error bars.

[8] = biological target: T1, recombinant HBV core protein (Hepatitis B virus genotype D subtype ayw, UniProt P03146); assay: Capsid assembly of recombinant core protein, electron microscopy; format: biochemical; settings: 1.2:1 compound-to-core monomer ratio, 0.15 M NaCl, room temperature overnight
T1 construct: Electron microscopy with HBV capsid formed from recombinant HBV core protein was performed as described previously ([5])
Protocol: FIG 1 NVR 3-778 targets HBV core protein and inhibits viral replication. (A) Chemical structure of NVR 3-778. (B) Purified recombinant HBV core protein in the absence or presence of NVR 3-778. NVR 3-778 was incubated with recombinant core protein (1.2:1 compound-to-core monomer ratio) in buffer containing 0.15 M NaCl at room temperature overnight prior to staining and imaging by electron microscopy. (C, D) The effect of NVR 3-778 on intracellular rcDNA, extracellular HBV DNA, or cell viability (C) or on intracellular encapsidated pgRNA- or extracellular HBV RNA-containing particles (D) was determined upon treating HepG2.2.15 cells with increasing concentrations of NVR 3-778. (E, F) The effect of TFV on intracellular rcDNA, extracellular HBV DNA, or cell viability (E) or on intracellular encapsidated pgRNA- or extracellular HBV RNA-containing particles (F) was determined upon treating HepG2.2.15 cells with increasing concentrations of TFV. Secreted HBV DNA and secreted HBV RNA levels were determined from the supernatant of HepG2.2.15 cells. Intracellular encapsidated rcDNA and pgRNA levels were determined upon NP-40 lysis of cells and by using S7 nuclease to remove nonencapsidated nucleic acids. Cell viability was determined by measuring ATP levels using the CellTiter-Glo assay. […]

[9] = test system: HBV (GT C); set-up: method as in PMID 29079518; settings: cited from earlier work
[10] = test system: HBV; set-up: method as in PMID 30181376; settings: metabolically active primary human hepatocytes; cited from earlier work
[11] = test system: HBV; set-up: method as in doi:10.1016/S0168-8278(16)00175-6; settings: HBV-infected patients; cited from earlier work
[12] = 2% human serum as printed in the table (text: 20%) versus without human serum
[13] = 10% human serum versus without human serum
[14] = 0% human serum, supernatant HBV DNA
[15] = 2% human serum as printed in the table (text: 20%)
[16] = 10% human serum, supernatant HBV DNA
[17] = 40% human serum, supernatant HBV DNA

O=C(Nc1cc(F)c(F)c(F)c1)c1ccc(F)c(S(=O)(=O)N2CCC(O)CC2)c1 [NVR 3-778]
EC50 [1]: 0.34 µM
EC50 [2]: 0.58 µM
Spread of EC50 values against HBV DNA replication across GT A to H isolates [3]: ≤ 3 fold
EC50 ([4]; Hepatitis B virus, HepG2, read-out: EC50, core variant T109S): 0.77 ± 0.27 µM
EC50 FC, T109S ([4]; ratio of mean EC50 for core variant over wild-type HBV): 3.3 fold
Mean percent binding to plasma proteins [5]: approximately 91%
Mean percent binding to plasma proteins [6]: approximately 98%
EC50 fold shift ([7]; 0% human serum (reference)): 1
EC90 fold shift ([7]; 0% human serum (reference)): 1.0
EC50 fold shift [7, 12]: 9.3
EC90 fold shift [7, 12]: 10.3
EC50 fold shift [7, 13]: 4.5
EC90 fold shift [7, 13]: 4.5
EC90 fold shift ([7]; 40% human serum versus without human serum): 15.2
EC50 [7, 14]: 0.4 ± 0.1 µM
EC90 [7, 14]: 1.5 ± 0.41 µM
EC50 [7, 15]: 3.7 ± 1 µM
EC90 [7, 15]: 15.9 ± 6.3 µM
EC50 [7, 16]: 1.8 ± 0.51 µM
EC90 [7, 16]: 6.9 ± 0.9 µM
EC50 [7, 17]: 6.3 ± 2 µM
EC90 [7, 17]: 23.5 ± 11.6 µM
Effect on assembly of purified recombinant core protein [8]: effectively induced the formation of capsid-like particles
Antiviral activity compared with ETV ([9]; HBV-infected humanized mice, 405 mg/kg BID): antiviral activity similar to that of the nucleoside analog ETV
Reduction of serum HBV DNA and HBV RNA, combination with pegIFN versus NVR 3-778 alone, pegIFN alone or entecavir alone ([9]; HBV-infected humanized mice): greater reduction in both serum HBV DNA and HBV RNA levels
Effect on serum HBV DNA and HBV RNA levels ([9]; humanized mice infected with GT C HBV): effective at reducing both serum HBV DNA and HBV RNA levels; also recorded: significant reductions in HBV DNA and secreted HBV RNA levels
Increase in EC50 against HBV DNA replication in the presence of serum proteins [10]: about 4 fold
Antiviral effect, combination with pegIFN versus NVR 3-778 monotherapy [11]: greatest antiviral effect
